Measured values taken from patent publication US20120101167A1, “Treatment of ocular and cerebral ischemia” (priority 2010, published 2012).

Test system: glaucoma patients
Test: IOP, pulsatile blood flow, visual performance, relative scotomas and stability of differential light sensitivity in glaucoma patients under long-term topical treatment
Format: in vivo, human
Excerpt: Elevated IOP is a risk factor associated with the development of glaucoma but it is not the disease itself. The recent recognition that a large percentage of glaucoma patients never experience elevated IOP has increased the possibility that the ocular hypotensive drug has the undesirable action of decreasing ocular blood flow. This possibility has been supported by numerous studies and confirmed in the prolonged longitudinal studies on individual glaucoma patents (Table 1). With increased ocular blood flow, the vision improved whilst with a drug having equal ocular hypotensive action, but causing decreased ocular blood flow run vision worsened. […] The Intraocular pressure and pulse form. The […] pneumatic digitized tonometer was used to make continuous recordings of the intraocular pressure and its pulsatile character. This recording system provides the steady state IOP and the form of the IOP pulse with an accuracy equal to a manometric recording. The pulsatile ocular blood flow is evaluated from the amplitude of the individual pulses using the known pressure/volume relation of living human eyes. […]'Brien V., Silver, D. M., Non-Invasive Measurement of Pulsatile Ocular Blood Flow in the Human […] and […], Amsterdam (1989).

[1] = difference timolol treatment minus prior, five glaucoma patients
[2] = five glaucoma patients, topical timolol 0.25-0.50% b.i.d., years 3, 4 and 5
[3] = difference clonidine treatment minus timolol treatment, five glaucoma patients
[4] = five glaucoma patients, topical 0.25% clonidine b.i.d., years 6, 7 and 8 (after timolol)

Row | Compound | IOP, Tim-Prior [1] [mmHg] | PBF, Tim-Prior [1] [µL/min] | Vis. P. (visual performance), Tim-Prior [1] | IOP [2] [mmHg] | PBF [2] [µL/min] | Rel. Scot (relative scotomas) [2] | Vis. P. (visual performance) [2] | Stability of the differential light sensitivity, Tim-Prior (number of the five glaucoma patients, timolol treatment versus prior) [decreased] | Stability of the differential light sensitivity (number of the five glaucoma patients, topical timolol 0.25-0.50% b.i.d., years 3, 4 and 5) [decreased] | IOP, Clon-Timolol [3] [mmHg] | PBF, Clon-Timolol [3] [µL/min] | Vis. P. (visual performance), Clon-Timolol [3] | IOP [4] [mmHg] | PBF [4] [µL/min] | Rel. Scot (relative scotomas) [4] | Vis. P. (visual performance) [4] | Stability of the differential light sensitivity, Clon-Timolol (number of the five glaucoma patients, clonidine treatment versus timolol treatment) [improved] | Stability of the differential light sensitivity (number of the five glaucoma patients, topical 0.25% clonidine b.i.d., years 6, 7 and 8) [improved]
1 | CC(C)(C)NC[C@H](O)COc1nsnc1N1CCOCC1 [Timolol, timolol] | −3.1 ± 0.6 | -177 ± 33 | −116 ± 2 | 20.8 ± 0.6 | 365 ± 20 | 3 | 533 ± 20 | 5 | 5 | – | – | – | – | – | – | – | – | –
2 | Clc1cccc(Cl)c1N=C1NCCN1 [Clonidine, clonidine] | – | – | – | – | – | – | – | – | – | −0.8 ± 0.5 | 192 ± 71 | 31 ± 9 | 20.0 ± 1.0 | 557 ± 30 | 3 | 564 ± 30 | 5 | 5
